Patent publication US5103007A, “Lipids” (Takeda Chemical Industries, Ltd., priority 1988, dated 1992)
Values after ≈ are worked out from the molar mass of the structure shown.

Assays:
[1] = test system: human colon adenocarcinoma (colon 205 cells); assay: Inhibition of multiplication of human colon adenocarcinoma (colon 205 cells), MTT assay; type: cell-based; conditions: 72 hours
Procedure: (§1) The effect (IC50) of the compounds obtained by Examples in inhibiting multiplication of human nasopharynx cancer (KB cells) and human colon adenocarcinoma (colon 205 cells) Each well of a 96-well microtiter plate was inoculated with 0.1 ml of human nasopharynx cancer (KB cells) (1×10^4 /ml) or human colon adenocarcinoma (colon 205 cells) (2×10^4 /ml), which was then subjected to cultivation by allowing to stand at 37° C. for 24 hours in 5% CO2. To the culture was added a 10% MEM solution (manufactured by Nissui Seiyaku or RPMI-1640), and cultivation was continued at 37° C. for 72 hours in 5% CO2. Then, the culture solution was removed with a micro-pipette. […] Incubation was conducted at 37° C for 4 hours, to which was then added 0.1 ml of a 10% SDS (Wako Pure Chemical Industries, Ltd.), and the incubation was continued at 37° C. for 24 hours.

[2] = test system: human nasopharynx cancer (KB cells); assay: Inhibition of multiplication of human nasopharynx cancer (KB cells), MTT assay; type: cell-based; conditions: 72 hours
Procedure: as §1

| IC50 [1] [µg/mL] | IC50 [2] [µg/mL] | Structure (SMILES) |
| --- | --- | --- |
| 2.5 (≈ 4.01 µM) | 0.32 (≈ 0.513 µM) | CCCCCCCCCCCCCCCCCCOCC(CSCCOCC[n+]1cccc(CCCCC(=O)[O-])c1)OC (stereo not drawn) [Ex. 46, 5-[1-[2-[2-(2-methoxy-3-octadecyloxypropylthio)ethoxy]ethyl]pyridinio-3-yl]-pentanoate] |
| 1.25 | 0.32 | CCCCCCCCCCCCCCCCCCOCC(CSCCOCC[N+]1(C)CCCC1)Oc1ncccn1.[Cl-] (stereo not drawn) [Ex. 22, N-methyl-N-[2-[2-[3-octadecyloxy-2-(pyrimidin-2-yloxy)propylthio]ethoxy]ethyl]pyrrolidinium chloride] |
| 0.32 | 0.16 | CCCCCCCCCCCCCCCCCCOCC(C[S+]([O-])CCOCC[n+]1cccc2ccccc21)Oc1ncccn1 (stereo not drawn) [Ex. 5, N-[2-[2-[3-octadecyloxy-2-(pyrimidin-2-yloxy)propylsulfinyl]ethoxy]quinolinium chloride] |
| 0.63 | 1.25 | CCCCCCCCCCCCCCCCCCOCC(CSCCOCC[n+]1ccn(CCC(C)(C)C(=O)OCC)c1)Oc1ncccn1 (stereo not drawn) [Ex. 26, 1-[(3-ethoxycarbonyl-3-methyl)butyl]-3-[2-[2-[3-octadecyloxy-2-(pyrimidin-2-yloxy)propylthio]-ethoxy]ethyl]imidazolium choride] |
| 5 (≈ 7.56 µM) | 1.25 (≈ 1.89 µM) | O=C([O-])CCCn1cc[n+](CCOCCSCC(COCCCCCCCCCCCCC2CCCCC2)Oc2ncccn2)c1 (stereo not drawn) [Ex. 28] |
| 0.63 | < 0.08 | [Cl-].[O-][S+](CCOCC[n+]1ccccc1)CC(COCCCCCCCCCCCCC1CCCCC1)Oc1ncccn1 (stereo not drawn) [Ex. 29, 1-[2-[2-[3-(12-cyclohexyldodecyloxy)-2-(pyrimidin-2yloxy)propylsulfinyl]ethoxy]ethyl]pyridinium chloride] |
| 0.63 | 0.16 | CC(C)CCCC(C)CCCC(C)CCCC(C)CCOCC(C[S+]([O-])CCOCC[n+]1ccccc1)Oc1ncccn1.[Cl-] (stereo not drawn) [Ex. 39, N-[2-[2-[2-(pyrimidin-2-yloxy)-3-(3,7,11, 15-tetramethylhexadecyloxy)propylsulfinyl]ethoxy]ethyl]-pyridinium chloride] |
| 0.63 | < 0.08 | CCCCCCCCCCCCCCCCCCOCC(CS(=O)(=O)CCOCC[n+]1ccccc1)Oc1ncccn1.[Cl-] (stereo not drawn) [Ex. 20, N-[2-[2-[3-octadecyloxy-2-(pyrimidin-2-yloxy)propylsulfonyl]ethoxy]ethyl]pyridinium chloride] |
| 1.25 | 1.25 | CCCCCCCCCCCCCCCCCCOCC(C[S+]([O-])CCCOCCC[n+]1ccsc1)Oc1ncccn1 (stereo not drawn) [Ex. 18, 3-[3-[3-octadecyloxy-2-(pyrimidin-2-yloxy)propylsulfinyl]propoxy]propylthiazolium chloride] |
| 0.32 | 0.16 | CCCCCCCCCCCCCCCCCCOCC(C[S+]([O-])CCOCC[N+]1(C)CCCC1)Oc1ncccn1.[Cl-] (stereo not drawn) [Ex. 30, N-methyl-N-[2-[2-[3-octadecyloxy-2-(pyrimidin-2-yloxy)propylsulfinyl]ethoxy]ethyl]pyrrolidinium chloride] |
| 5 (≈ 7.27 µM) | 0.32 (≈ 0.465 µM) | CCCCCCCCCCCCCCCCCCOCC(CSCCOCC[n+]1cccc(CCCCC(=O)[O-])c1)Oc1ncccn1 (stereo not drawn) [Ex. 37, 5-[1-[2-[2-[3-octadecyloxy-2-(pyrimidin-2-yloxy)propylthio]ethoxy]ethyl]pyridinio-3-yl]pentanoate] |
| 1.25 | 0.32 | CCCCCCCCCCCCCCCCCCOCC(CSCCOCC[N+](C)(C)C)OC (stereo not drawn) [Ex. 43, N-[2-(2-methoxy-3-oxtadecyloxypropylthio)ethoxy]ethyl-N,N,N-trimethylammonium chloride] |
| 2.5 | 0.32 | CCCCCCCCCCCCCCCCCCOCC(CSCCOCC[n+]1ccn(CCCCCC(=O)OCC)c1)Oc1ncccn1 (stereo not drawn) [Ex. 25, 1-[(5-ethoxycarbonyl)pentyl]-3-[2-[2-[3-octadecyloxy-2-(pyrimidin-2-yloxy)propylthio]ethoxy]ethyl]imidazolium chloride] |
| 1.25 | 0.32 | CCCCCCCCCCCCCCCCCCOCC(CS(=O)(=O)CCCCCOCCCCC[n+]1ccccc1)Oc1ncccn1.[Cl-] (stereo not drawn) [Ex. 42, N-[5-[5-[3-octadecyloxy-2-(pyrimidin-2-yloxy)propylsulfonyl]pentyloxy]pentyl]pyridinium chloride] |
| 1.25 | 0.63 | CCCCCCCCCCCCCCCCCCOCC(CSCCOCCOCC[N+](C)(C)C)Oc1ncccn1 (stereo not drawn) [Ex. 47, N-[2-[2-[2-[3-octadecyloxy-2-(pyrimidin-2-yloxy)propylthio]ethoxy]ethoxy]ethyl]-N,N,N,trimethylammonium chloride] |
| 0.63 | 0.16 | CCCCCCCCCCCCCCCCCCOCC(C[S+]([O-])CCOCC[N+](C)(C)C)Oc1ccncn1.[Cl-] (stereo not drawn) [Ex. 35, N-[2-[2-[3-octadecyloxy-2-(pyrimidin-4-yloxy)propylsulfinyl]ethoxy]ethyl]-N,N,N-trimethylammonium chloride] |
| 2.5 (≈ 4.17 µM) | 0.63 (≈ 1.05 µM) | CCCCCCCCCCCCCCCCCCOCC(CSCCOCC[n+]1ccn(CCCC(=O)[O-])c1)OC (stereo not drawn) [Ex. 45, 4-[3-[2-[2(2-methoxy-3-octadecyloxypropylthio)ethoxy]ethyl]imidazolio-1-yl]butyrate] |
| 0.63 | 0.16 | CCCCCCCCCCCCCCCCCCOCC(C[S+]([O-])CCOCC[n+]1ccc(N(C)C)cc1)Oc1ncccn1.[Cl-] (stereo not drawn) [Ex. 7, 4-dimethylamino-1-[2-[2-[3-octadecyloxy-2-(pyrimidin-2-yloxy)propylsulfinyl]ethoxy]ethyl]pyridinium chloride] |
| 1.25 | 1.25 | CCCCCCCCCCCCCCCCCCOCC(CS(=O)(=O)CCCOCCC[n+]1ccsc1)Oc1ncccn1 (stereo not drawn) [Ex. 15, 3-[3-[3-octadecyloxy-2-(pyrimidin-2-yloxy)propylsulfonyl]propoxy]propylthiazolium chloride] |
| 1.25 (≈ 1.74 µM) | 0.63 (≈ 0.876 µM) | CCCCCCCCCCCCCCCCCCOCC(CSCCCOCCC[n+]1ccn(CCCCCC(=O)[O-])c1)Oc1ncccn1 (stereo not drawn) [Ex. 13, 6-[3-[3-[3-[3-octadecyloxy-2-(pyrimidin-2-yloxy)propylthio]propoxy]propyl]imidazolio-1-yl]hexanoate] |
| 0.63 | 0.16 | CCCCCCCCCCCCCCCCCCOCC(CS(=O)(=O)CCCOCCC[n+]1ccccc1)Oc1ncccn1.[Cl-] (stereo not drawn) [Ex. 16, N-[3-[3-[3-octadecyloxy-2-(pyrimidin-2-yloxy)propylsulfonyl]propoxy]propyl]pyridinium chloride] |
| 2.5 (≈ 3.48 µM) | 0.63 (≈ 0.876 µM) | CC(C)CCCC(C)CCCC(C)CCCC(C)CCOCC(CSCCOCC[n+]1ccn(CCCCCC(=O)[O-])c1)Oc1ncccn1 (stereo not drawn) [Ex. 38, 6-[3-[2-[2-[2-(pyrimidin-2-yloxy)-3-(3,7, 11,15-tetramethylhexadecyloxy)propylthio]ethoxy]ethyl]-imidazolio-1-yl)hexanoate] |
| 0.32 | 0.16 | CCCCCCCCCCCCCCCCCCOCC(C[S+]([O-])CCOCC[N+](C)(C)C)OC.[Cl-] (stereo not drawn) [Ex. 44, N-[2-[2-(2-methoxy-3-octadecyloxypropylsulfinyl)ethoxy]ethyl]-N,N,N-trimethylammonium chloride] |
| 0.63 | 0.63 | CCCCCCCCCCCCCCCCCCOCC(CSCCOCC[N+](C)(C)C)Oc1ncccn1.[Cl-] (stereo not drawn) [Ex. 23, N-[2-[2-[3-octadecyloxy-2-(pyrimidin-2-yloxy)propylthio]ethoxy]ethyl]-N,N,N-trimethylammonium chloride] |
| 0.63 | 0.32 | CCCCCCCCCCCCCCCCCCOCC(C[S+]([O-])CCOCC[n+]1ccccc1)Oc1ccncn1.[Cl-] (stereo not drawn) [Ex. 34, N-[2-[2-[3-octadecyloxy-2-(pyrimidin-4-yloxy)propylsulfinyl]ethoxy]ethyl]pyridinium chloride] |
| 2.5 (≈ 3.62 µM) | 0.63 (≈ 0.912 µM) | CCCCCCCCCCCCCCCCCCOCC(CSCCOCC[n+]1ccn(CCCCCC(=O)[O-])c1)Oc1ccncn1 (stereo not drawn) [Ex. 33, 6-[3-[2-[2-[3-octadecyloxy-2-(pyrimidin-4-yloxy)propylthio]ethoxy]ethyl]imidazolio-1-yl]hexanoate] |
| 1.25 | 0.32 | CCCCCCCCCCCCCCCCCCOCC(CS(=O)(=O)CCCOCCC[N+](C)(C)C)Oc1ncccn1.[Cl-] (stereo not drawn) [Ex. 17, N-[3-[3-[3-octadecyloxy-2-(pyrimidin-2-yloxy)propylsulfonyl]propoxy]propyl]-N,N,N-trimethylammonium chloride] |
| 1.25 | 0.63 | CCCCCCCCCCCCCCCCCCOCC(CSCCOCC[n+]1ccccc1)Oc1ccncn1.[Cl-] (stereo not drawn) [Ex. 32, N-[2-[2-[3-octadecyloxy-2-(pyrimidin-4-yloxy)propylthio]ethoxy]ethyl]pyridinium chloride] |
| 0.63 | 0.16 | CCCCCCCCCCCCCCCCCCOCC(C[S+]([O-])CCOCCOCC[N+](C)(C)C)Oc1ncccn1.[Cl-] (stereo not drawn) [Ex. 48, N-[2-[2-[3-octadecyloxy-2-(pyrimidin-2-yloxy)propylsulfinyl]ethoxy]ethoxy]ethyl-N,N,N-trimethylammonium chloride] |
| 0.63 | 0.32 | CCCCCCCCCCCCCCCCCCOCC(C[S+]([O-])CCOCC[n+]1ccc2ccccc2c1)Oc1ncccn1.[Cl-] (stereo not drawn) [Ex. 4, N-[2-[2-[3-octadecyloxy-2-(pyrimidin-2-yloxy)propylsulfinyl]ethoxy]ethyl]isoquinolinium chloride] |
